Data from US12178885B2, “Method for mediating targeted delivery of a composition to the brain of a subject in need thereof” (Fudan University, priority 2018, dated 2024).
Peptide text beside a SMILES is read from it.

Assays:
[1] = tested on: orthotopic U87 glioma; test: anti-glioma efficacy: median survival time of orthotopic tumor model mice; type: in vivo, nude mice; settings: tail vein, adriamycin 2 mg/kg per injection, days 7, 9, 11, 13, 15; saline group 27 days
Experimental: By injecting SP modified delivery system, unmodified polypeptide delivery system, free drug and normal saline into nude mice bearing orthotopic U87 glioma model via tail vein, the anti-tumor effect of SP modified delivery system in vivo is evaluated with the median survival time, apoptosis of tumor tissue and neovascularization density as indicators.
Establishment of glioma model in nude mice: Took U87 cells in logarithmic growth phase, digested and counted the cells, suspended them with appropriate amount of PBS buffer, inoculated 6×10^5 cells (dispersed in 5 μL PBS buffer) to each nude mouse. The nude mice was anesthetized with 7% chloral hydrate before the experiment, fixed with a brain stereotactic instrument, and inoculated the suspended cells to the striatum (i.e. 0.6 mm forward, 1.8 mm to the right, and 3 mm deep of the anterior fontanelle). Regularly observed the state of nude mice after operation.
Nude mice with orthotopic brain tumor model were randomly divided into 4 groups (n=13), and their body weight was recorded on the 7th, 9th, 11th, 13th and 15th day, respectively.

[2] = tested on: neural cell line PC12; settings: gradient concentration of SP co-cultured with PC12
Source text: Safety evaluation: The gradient concentration of SP was co-cultured with nerve cell line PC12 to evaluate its cytotoxicity in vitro. At the same time, the heart, liver, spleen, lung and kidney tissues of mice in the pharmacodynamic test of orthotopic tumor were dissected and fixed in PBS solution of 4% paraformaldehyde, paraffin-embedded sections were made, stained with HE, observed and photographed under a microscope. the experimental results are shown in FIG. 10.

[3] = tested on: SP antibody; test: competition ELISA for binding of SP antibody to SP fixed on 96-well plate; settings: without plasma incubation
Experimental: The specific operation was as follows: 0.1 μg SP-PEG-DSPE was added to each well of ELISA plate, left overnight at room temperature, washed with PBS for 3 times, sealed with 3% BSA for 1 h, and the BSA solution was sucked off Added SP antibody, incubated at 37° C. for 1 h, washed with PBS for three times, added liposome incubated with serum or PBS in advance and diluted in gradient, incubated at 37° C. for 1 h, washed with PBS for three times, added corresponding horseradish peroxidase labeled secondary antibody, reacted with TMB chromogenic solution for 3-15 min after 1 h, stopped the reaction with 2 M H2SO4, and measured its absorbance value at 450 nm wavelength.

| SMILES | median survival time [1] | cytotoxicity [2] | competition for interaction between SP and antibody [3] |
| --- | --- | --- | --- |
| COc1cccc2c1C(=O)c1c(O)c3c(c(O)c1C2=O)C[C@@](O)(C(=O)CO)C[C@@H]3O[C@H]1C[C@H](N)[C@H](O)[C@H](C)O1 [DOX, adriamycin] | 31 days | – | – |
| CC[C@H](C)[C@H](NC(=O)[C@H](C)NC(=O)CNC(=O)[C@H](CCCCN)NC(=O)[C@H](CC(N)=O)NC(=O)[C@H](CO)NC(=O)CN)C(=O)N[C@H](C(=O)NCC(=O)N[C@@H](CC(C)C)C(=O)N[C@@H](CCSC)C(N)=O)[C@@H](C)CC [SP] (H-GSNKGAIIGLM-NH2) | – | did not show cytotoxicity | can compete for the interaction between SP and antibody |
